Positions of bridges follow the written chain, without caps; N, C: chain ends. Residues, ends and D or L forms follow the SMILES beside them. No end group written: not given here.
Tests used:
αvβ3 integrin [1] = biological target: T1, αvβ3 integrin (Homo sapiens, UniProt P05106+P06756); assay: inhibition of NGRAHA-phage binding to αvβ3; conditions: means from duplicate wells
T1 construct: The α5β1 and αvβ3 integrins were isolated from human placenta; from tissue; host or cells: human placenta
Source text: (§1) The α5β1 and αvβ3 integrins were isolated from human placenta as described in Pytela et al., PNAS USA.
(§2) Selected peptides were studied for their ability to bind to the αvβ3 integrin by using integrin bound on anti-αv or anti-β3 antibody coating. Microliter wells were coated with β3 antibodies to bind specifically the αvβ3 integrin. […] The bound phage were eluted with low pH buffer and quantitated by infection of bacteria as described above. The IC50 values are means from duplicate wells. ND means not determined.

αvβ3 integrin [2] = biological target: T1, αvβ3 integrin; assay: binding of peptides to αvβ3 integrin bound on anti-αv or anti-β3 antibody coating
Source text: Selected peptides were studied for their ability to bind to the αvβ3 integrin by using integrin bound on anti-αv or anti-β3 antibody coating. Microliter wells were coated with β3 antibodies to bind specifically the αvβ3 integrin. The input of CRGDCL (SEQ ID NO:01)-containing phage and NGRAHA (SEQ ID NO:04)-containing phage were 2×10^12 and 5×10^12 TU per well, respectively. The bound phage were eluted with low pH buffer and quantitated by infection of bacteria as described above. The IC50 values are means from duplicate wells. ND means not determined.

α5β1 and αvβ3 integrins = assay: competitive binding assays for relative binding affinities of peptide motifs; parameters: species or system human; conditions: for relative binding affinity class (in words): competitive binding assays
α5β1 integrin [3] = biological target: T2, α5β1 integrin (Homo sapiens, UniProt P05556+P08648); assay: fibronectin binding assay: inhibition of 125I-labeled fibronectin binding to immobilized α5β1; conditions: FIG. 2, FIG. 3
T2 construct: The α5β1 and αvβ3 integrins were isolated from human placenta; from tissue; host or cells: human placenta
T2 sequence (P08648 42-894 limits assumed): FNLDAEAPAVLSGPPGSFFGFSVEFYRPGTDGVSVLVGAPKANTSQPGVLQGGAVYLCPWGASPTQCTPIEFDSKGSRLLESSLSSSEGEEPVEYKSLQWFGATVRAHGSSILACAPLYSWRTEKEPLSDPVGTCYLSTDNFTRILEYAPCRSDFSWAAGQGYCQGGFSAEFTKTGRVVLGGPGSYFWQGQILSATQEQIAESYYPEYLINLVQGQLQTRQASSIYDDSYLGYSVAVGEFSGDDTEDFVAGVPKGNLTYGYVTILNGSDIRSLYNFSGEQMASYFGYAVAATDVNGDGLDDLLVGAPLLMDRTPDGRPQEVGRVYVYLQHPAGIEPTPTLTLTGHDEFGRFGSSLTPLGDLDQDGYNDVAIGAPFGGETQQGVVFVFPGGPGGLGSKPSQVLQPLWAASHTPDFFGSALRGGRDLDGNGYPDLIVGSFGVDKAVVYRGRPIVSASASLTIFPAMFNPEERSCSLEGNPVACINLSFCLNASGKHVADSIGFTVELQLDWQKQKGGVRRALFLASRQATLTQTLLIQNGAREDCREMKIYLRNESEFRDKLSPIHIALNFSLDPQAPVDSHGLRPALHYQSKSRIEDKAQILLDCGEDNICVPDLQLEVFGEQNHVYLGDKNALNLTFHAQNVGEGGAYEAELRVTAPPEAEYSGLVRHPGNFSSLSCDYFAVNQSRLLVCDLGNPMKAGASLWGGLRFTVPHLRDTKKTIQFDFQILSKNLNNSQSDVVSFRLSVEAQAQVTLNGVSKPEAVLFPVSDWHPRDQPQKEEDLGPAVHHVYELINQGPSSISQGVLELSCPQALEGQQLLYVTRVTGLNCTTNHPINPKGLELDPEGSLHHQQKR
T2 sequence (P08648 895-1049 limits assumed): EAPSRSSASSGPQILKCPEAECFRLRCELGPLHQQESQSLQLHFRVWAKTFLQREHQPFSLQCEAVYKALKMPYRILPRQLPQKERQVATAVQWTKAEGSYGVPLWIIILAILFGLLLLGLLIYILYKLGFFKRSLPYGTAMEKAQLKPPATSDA
T2 sequence (P05556 21-798): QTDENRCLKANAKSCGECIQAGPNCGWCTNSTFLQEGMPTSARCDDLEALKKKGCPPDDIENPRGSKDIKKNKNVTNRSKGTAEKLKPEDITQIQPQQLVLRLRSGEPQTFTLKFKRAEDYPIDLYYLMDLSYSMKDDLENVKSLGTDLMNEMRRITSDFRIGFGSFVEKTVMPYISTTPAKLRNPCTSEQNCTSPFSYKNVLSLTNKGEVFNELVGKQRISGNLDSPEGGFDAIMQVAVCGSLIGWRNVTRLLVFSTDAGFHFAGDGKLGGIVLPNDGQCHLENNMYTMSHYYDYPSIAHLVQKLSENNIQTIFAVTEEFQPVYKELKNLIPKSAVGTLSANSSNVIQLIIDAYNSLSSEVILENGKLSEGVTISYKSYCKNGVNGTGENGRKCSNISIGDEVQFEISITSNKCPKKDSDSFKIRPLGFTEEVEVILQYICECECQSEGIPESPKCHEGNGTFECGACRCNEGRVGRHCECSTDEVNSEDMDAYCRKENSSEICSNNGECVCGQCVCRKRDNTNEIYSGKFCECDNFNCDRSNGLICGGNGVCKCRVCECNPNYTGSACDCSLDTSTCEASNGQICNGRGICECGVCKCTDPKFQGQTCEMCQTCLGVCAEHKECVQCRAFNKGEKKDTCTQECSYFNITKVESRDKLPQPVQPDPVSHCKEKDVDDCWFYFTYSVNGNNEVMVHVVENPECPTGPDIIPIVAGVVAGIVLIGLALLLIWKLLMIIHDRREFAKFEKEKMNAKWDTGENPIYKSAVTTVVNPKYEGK
Procedure: Microtiter wells were coated with anti-α5 specific antibody by incubating overnight at an antibody concentration of 10 μg/ml, followed by BSA. α5β1 integrin then was bound to α5specific antibody-coated wells by incubating 300 μl of a placental extract per well in TBS buffer containing 0.1 M octylglucoside, 1 mM CaCl2, 1 mM MnCl2 and proteinase inhibitors overnight at 4° C. according to Pytela et al., Methods Enzymol 144: 475-489 (1987), which is herein incorporated by reference. Alternatively, the α5β1 integrin was directly coated on plastic as described above. The wells were extensively washed with TBS containing 0.1% NP-40™. ^125 I-labeled fibronectin (100,000 cpm per well) was incubated in the presence of competing peptides for 1 hour at 25° C. in 100 μl volume of TBS containing 0.1% NP-40™ detergent and 1 mM MnCl 2. After repeated washing, the radioactivity remaining bound was quantitated with a gamma counter.
Next, three of these four peptides were compared for efficiencies in inhibiting binding of ^125 I-labeled fibronectin to immobilized α5β1, according to the fibronectin binding assay described in the Example above. Anti-α5 antibodies were used to tether α5β1 onto microliter wells. ^125 I-labeled fibronectin was incubated in the coated wells in the presence of competing peptides for 1 hour. After washing, the radioactivity that remained bound was determined. The data represent means from duplicate wells.

αvβ3 integrin [4] = biological target: T1, αvβ3 integrin; assay: inhibition of CRGDCL-phage binding to αvβ3; conditions: means from duplicate wells
Source text: as §1, §2

αvβ5 = biological target: T3, αvβ5 (Homo sapiens, UniProt P06756+P18084); assay: cell attachment assay: HT29 cells to vitronectin; format: cell-based
T3 construct: endogenous in cells; host or cells: HT29
Source text: (§3) CHO cell lines expressing α5β1 (the B2/α27 clone, as described in Bauer et al., J. Cell. Biol. 116:477-487 (1992)), or CHO cell lines expressing αvβ1 (B2/v7 clone, described in Zhang et al., J. Cell. Biol. 122:235-242 (1993)) were used in these assays. Cell lines expressing fibronectin-binding integrins were used to determine peptide activities against these integrins in the cell attachment assay described in Ruoslahti et al. Methods Enzymol. 144:803-831 […]. The vitronectin-binding integrins αvβ5 and αvβ3 were assayed using the cell lines HT29 and IMR90, respectively, which were described in Koivunen et al. J. Biol. Chem. 268:205-210 (1993).
(§4) Human plasma fibronectin and vitronectin were iodinated as described in Morla and Ruoslahti, J. Cell Biol. 118:421-429 (1992), which is incorporated herein by reference. […] The input ell number was approximately 2×10^4 and attachment was quantitated by staining with 0.1% amido black.
(§5) Selected peptides were tested for inhibitory activity in cell attachment assays. The assays are described in detail in the Example above. The cells used in the various experiments were: (A) α5 -transfected CHO cells B2/α27 (α5β1); αv -transfectedCHO cells 32/v7 (αvβ1); (C) HT29 cells (αvβ5); (D) IMR90 cells (αvβ3). […]

α5β1 integrin [5] = biological target: T2, α5β1 integrin; assay: phage attachment assay: inhibition of CRGDCL-phage binding to α5β1 integrin; conditions: FIG. 1
Procedure: as §1
CRGDCL-displaying phage were incubated for 1 hour in the presence of various concentrations of the peptides to be tested in microtiter wells coated with the α5β1 integrin. […] Specific binding was quantitated by added K9lkan bacteria directly to the wells and growing the bacteria overnight at room temperature in the presence of tetracycline as described in Smith and Scott, Meth. Enzymol. […] The data represent means from duplicate wells.

α5β1 = biological target: T4, α5β1 (UniProt G3HZ55+P08648); assay: cell attachment assay: α5-transfected CHO cells B2/α27 to fibronectin; format: cell-based; conditions: FIG. 4A, read-out: IC50, inhibition of α5β1-mediated cell attachment to fibronectin
T4 construct: expressed in transfected cells; host or cells: CHO B2/α27 clone
T4 sequence (P08648 42-894 limits assumed): as the sequence (P08648 42-894 limits assumed) above
T4 sequence (P08648 895-1049 limits assumed): as the sequence (P08648 895-1049 limits assumed) above
T4 sequence (G3HZ55 21-798): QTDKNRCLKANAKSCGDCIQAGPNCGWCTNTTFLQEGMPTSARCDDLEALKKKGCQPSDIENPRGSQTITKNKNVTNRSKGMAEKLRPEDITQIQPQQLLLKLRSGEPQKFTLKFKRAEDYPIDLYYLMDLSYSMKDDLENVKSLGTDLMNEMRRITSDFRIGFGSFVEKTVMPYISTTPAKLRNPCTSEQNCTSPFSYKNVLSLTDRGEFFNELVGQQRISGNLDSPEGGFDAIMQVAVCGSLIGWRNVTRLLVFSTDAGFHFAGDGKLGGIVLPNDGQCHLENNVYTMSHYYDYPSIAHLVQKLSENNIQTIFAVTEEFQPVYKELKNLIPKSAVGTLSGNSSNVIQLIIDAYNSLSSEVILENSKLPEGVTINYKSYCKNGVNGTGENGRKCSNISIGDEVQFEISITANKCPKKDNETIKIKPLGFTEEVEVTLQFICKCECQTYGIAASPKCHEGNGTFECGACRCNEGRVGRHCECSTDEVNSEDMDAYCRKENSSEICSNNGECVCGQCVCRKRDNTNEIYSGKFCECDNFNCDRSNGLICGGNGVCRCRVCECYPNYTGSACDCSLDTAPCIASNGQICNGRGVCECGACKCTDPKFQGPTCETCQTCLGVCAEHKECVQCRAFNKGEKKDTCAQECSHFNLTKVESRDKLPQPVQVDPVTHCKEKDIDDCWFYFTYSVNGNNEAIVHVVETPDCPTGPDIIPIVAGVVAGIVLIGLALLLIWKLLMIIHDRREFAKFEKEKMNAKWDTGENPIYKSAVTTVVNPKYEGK
Source text: as §3, §4, §5

α5β1 integrin [6] = biological target: T2, α5β1 integrin; assay: inhibition of ELRGDGW-containing phage binding to α5β1 integrin; conditions: 1 hour at room temperature
Procedure: Phage carrying the insert ELRGDGW (SEQ ID NO 24) were added together with various concentrations of the cyclic peptide […] (SEQ ID NO:03) into microliter wells coated with the α5β1 integrin and incubated for 1 hour at room temperature. The 15 phage which remained bound to the wells were quantitated by growing the K9lkan bacteria in the wells overnight at room temperature in the presence of tetracycline. The absorbance that indicates the growth of bacteria infected with phage was measured at 600 nm with an ELISA reader.

T1 sequence (P06756 31-889 limits assumed): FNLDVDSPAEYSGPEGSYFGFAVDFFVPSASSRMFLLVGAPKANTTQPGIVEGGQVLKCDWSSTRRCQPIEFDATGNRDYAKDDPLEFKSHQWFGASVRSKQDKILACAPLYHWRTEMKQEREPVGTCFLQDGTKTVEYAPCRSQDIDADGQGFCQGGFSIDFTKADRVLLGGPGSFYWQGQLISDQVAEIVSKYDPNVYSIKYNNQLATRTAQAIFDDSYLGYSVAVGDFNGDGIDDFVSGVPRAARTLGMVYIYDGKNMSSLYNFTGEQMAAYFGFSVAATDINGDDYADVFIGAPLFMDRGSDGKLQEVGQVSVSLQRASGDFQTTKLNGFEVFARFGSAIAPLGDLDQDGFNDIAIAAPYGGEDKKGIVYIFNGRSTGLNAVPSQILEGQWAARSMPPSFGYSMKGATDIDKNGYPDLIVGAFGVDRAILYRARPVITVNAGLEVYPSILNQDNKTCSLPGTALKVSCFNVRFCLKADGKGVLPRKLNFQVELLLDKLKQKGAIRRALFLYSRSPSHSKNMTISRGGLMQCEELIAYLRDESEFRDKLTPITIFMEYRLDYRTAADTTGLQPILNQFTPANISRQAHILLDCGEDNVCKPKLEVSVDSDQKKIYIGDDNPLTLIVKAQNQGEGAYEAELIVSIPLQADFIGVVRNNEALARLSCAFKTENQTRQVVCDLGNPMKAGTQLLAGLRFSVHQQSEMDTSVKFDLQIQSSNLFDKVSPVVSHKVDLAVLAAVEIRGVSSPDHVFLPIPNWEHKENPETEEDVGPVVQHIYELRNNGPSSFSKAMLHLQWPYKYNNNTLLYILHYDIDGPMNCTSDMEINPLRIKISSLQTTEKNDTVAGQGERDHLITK
T1 sequence (P06756 891-1048 limits assumed): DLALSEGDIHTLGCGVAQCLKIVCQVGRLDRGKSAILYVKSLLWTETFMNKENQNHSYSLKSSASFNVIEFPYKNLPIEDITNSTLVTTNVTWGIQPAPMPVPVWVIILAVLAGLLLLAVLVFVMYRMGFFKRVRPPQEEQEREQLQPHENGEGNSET
T1 sequence (P05106 27-788): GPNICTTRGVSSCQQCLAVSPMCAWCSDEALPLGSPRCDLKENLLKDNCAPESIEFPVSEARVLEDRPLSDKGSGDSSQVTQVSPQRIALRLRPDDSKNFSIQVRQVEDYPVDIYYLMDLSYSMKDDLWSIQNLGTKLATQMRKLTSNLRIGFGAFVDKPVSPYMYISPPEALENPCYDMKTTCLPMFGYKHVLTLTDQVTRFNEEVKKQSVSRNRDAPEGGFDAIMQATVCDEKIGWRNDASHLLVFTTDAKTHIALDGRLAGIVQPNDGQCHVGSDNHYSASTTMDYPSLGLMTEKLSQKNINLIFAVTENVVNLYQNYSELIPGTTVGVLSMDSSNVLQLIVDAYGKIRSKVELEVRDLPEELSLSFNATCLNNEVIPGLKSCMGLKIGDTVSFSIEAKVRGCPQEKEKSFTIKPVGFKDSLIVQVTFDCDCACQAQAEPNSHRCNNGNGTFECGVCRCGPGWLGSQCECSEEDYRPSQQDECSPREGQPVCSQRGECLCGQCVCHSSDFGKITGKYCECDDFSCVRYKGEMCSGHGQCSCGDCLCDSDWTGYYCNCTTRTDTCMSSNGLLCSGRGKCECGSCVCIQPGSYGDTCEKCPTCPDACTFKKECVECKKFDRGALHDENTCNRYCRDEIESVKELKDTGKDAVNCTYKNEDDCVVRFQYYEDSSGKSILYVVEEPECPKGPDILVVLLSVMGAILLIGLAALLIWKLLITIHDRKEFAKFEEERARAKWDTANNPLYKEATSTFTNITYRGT

| Compound | IC50 (αvβ3 integrin [1]) | relative binding affinity class (in words) (α5β1 and αvβ3 integrins) | activity in inhibiting 125I-fibronectin binding to α5β1 (in words) (α5β1 integrin [3]) | IC50 (αvβ3 integrin [4]) | other results |
| --- | --- | --- | --- | --- | --- |
| N=C(N)NCCC[C@H](NC(=O)CNC(=O)[C@H](CC(=O)O)NC(=O)[C@@H](N)CO)C(=O)O [SDGR, reference compound] (H-SDGR-OH) | > 100 µM |  |  |  |  |
| SRRGDL [RGD peptide] |  |  |  |  | binding to αvβ3 (in words) (αvβ3 integrin [2]): bound |
| CVLNGRME |  | moderate affinities |  |  |  |
| CRGDC (disulfide 1-5 (inferred)) [cyclic peptide motif] |  | High affinity |  |  |  |
| SDGRAHS (SDGRAHA) [DGRAHA with a serine residue included at the amino terminus] |  |  | essentially devoid of activity |  |  |
| GATIRSVDGA |  |  |  | ~100 µM |  |
| DGRAHA [DGRAHA] | 100 µM |  |  |  | IC50 against αvβ5 compared with the standard GRGDSP (αvβ5): equal to the standard GRGDSP |
| NGRAHA [NGRAHA] | 30 µM |  | active | 200 µM | IC50 (α5β1 integrin [5]; CRGDCL-phage, α5β1, read-out: IC50 in the phage assay (unit inferred)): 30 µM |
| CRGDCL (disulfide 1-5 (inferred)) |  | High affinity | very effective |  | binding to αvβ3 (in words) (αvβ3 integrin [2]): bound; binding affinity compared with similar linear peptides, as judged by the IC50 value (α5β1 and αvβ3 integrins; both α5β1 and αvβ3 integrins): about 10 times |
| CC(C)C[C@H](NC(=O)[C@@H]1CSSC[C@H](NC(=O)[C@H](C)NC(=O)CN)C(=O)N[C@@H](CCCNC(=N)N)C(=O)NCC(=O)N[C@@H](CC(=O)O)C(=O)N1)C(=O)NCC(=O)N[C@@H](C)C(=O)O [GAC*RGDC*LGA] (H-GACRGDCLGA-OH; disulfide 3-7) |  |  |  | 0.1 µM | IC50 (α5β1 integrin [5]; 1 hour, means from duplicate wells, read-out: IC50 (half-maximal inhibitory concentration), inhibition of CRGDCL-phage binding to α5β1): 0.02 µM; IC50 (α5β1): 100 µM; IC50 (α5β1 integrin [6]): ~0.5 µM |
